US20230165872A1, “COMBINATION OF BCMA-DIRECTED T CELL THERAPY AND AN IMMUNOMODULATORY COMPOUND” (Juno Therapeutics, Inc., priority 2020, published 2023)

Legend:
anti-BCMA CAR T cells = assay: Viability and count of anti-BCMA CAR T cells after 7-day chronic stimulation with BCMA-conjugated beads; assay type: cell-based, human
Protocol: Cryofrozen anti-BCMA CAR T cells, produced substantially as described in Example 1 and formulated at a 1:1 ratio of CD4+ and CD8^+ T cells, were thawed. To subject cells to chronic stimulation conditions, the anti-BCMA CAR+ T cells were stimulated with 50 μg BCMA conjugated beads (diameter about 4.5 μm from a 50 μg/ml BCMA-conjugated bead composition, generated as described in Example 2) at a ratio of T cells to beads of 1:1 in the presence or absence of Compound A (iberdomide, (S)-3-[4-(4-morpholin-4-ylmethyl-benzyloxy)-1-oxo-1,3-dihydro-isoindol-2-yl]-piperidine-2,6-dione) (1 nM or 10 nM), Compound B ((S)-4-(4-(4-(((2-(2,6-dioxopiperidin-3-yl)-1-oxoisoindolin-4-yl)oxy)methyl)benzyl)piperazin-1-yl)-3-fluorobenzonitrile) (0.1 nM or 1 nM), or DMSO vehicle control. The cells were then incubated at 37° C., 5% CO2 for 7 days.
At day 7, anti-BCMA CAR cells of all the samples were counted using a cellometer machine and stained for flow cytometric analysis. Cells were stained with a viability dye and analyzed by flow cytometry. Viability and count of anti-BCMA CAR T cells was increased in the presence of Compound A or Compound B.
Cryofrozen anti-BCMA CAR T cells, produced substantially as described in Example 1 and formulated at a 1:1 ratio of CD4+ and CD8+ T cells, were thawed. […] The cells were then incubated at 37° C., 5% CO2 for 7 days.
At day 7, anti-BCMA CAR cells of all the samples were counted using a cellometer machine and stained for flow cytometric analysis. Cells were stained with a viability dye and analyzed by flow cytometry.

CAR-expressing T cells = assay: Prolonged treatment: long-term proliferative potential of CAR-expressing T cells; assay type: cell-based; parameters: long term product performance: dose or concentration left out as unconfirmed
[1] = system: Irradiated DF-15R target cells; assay: Serial stimulation assay of anti-BCMA CAR T cells; assay type: cell-based, human
Protocol: A serial stimulation assay or serial re-challenge assay was used to assess activity of anti-BCMA CAR T cells following repeated rounds of antigen stimulation, in the presence and absence of Compound A (iberdomide, (S)-3-[4-(4-morpholin-4-ylmethyl-benzyloxy)-1-oxo-1,3-dihydro-isoindol-2-yl]-piperidine-2,6-dione).
Anti-BCMA CAR+ T cells (generated as described in Example 1) were plated in triplicate at 1×10^5 cells/well on 96-well plates. Irradiated DF-15R target cells, which is a multiple myeloma (MM) cell line generated to be resistant to effect of cell immunomodulatory compounds (Lopez-Girona et al. Leukemia, 2012; 26:2326-2335), were added at an effector-to-target (E:T) ratio of 1:2 in the presence or absence of various concentrations (10 nM) of Iberdomide.
Every 3-4 days (start of each new round), CAR T cells were counted. Cells then were harvested and re-plated at the initial seeding density with fresh media, newly-added Iberdomide at the same concentration, where applicable, and newly-thawed, irradiated target cells. Five rounds of stimulation were carried out during a 19 day culture period. At day 5 and day 9 (24 hours after a re-plating (reset) cytokine production in the supernatant was assessed. Results were assessed in two different donors.

lymphoma cells = details: cited from earlier work
OPM2 target cells = assay: Acute co-culture cytokine secretion of anti-BCMA CAR T cells with OPM2; assay type: cell-based, human; details: OPM2, E:T 1:1, 24 hours, 0.01-10,000 nM, FIG. 2B
Protocol: Anti-tumor effects of anti-BCMA CAR T cells, alone and in combination with cell immunomodulatory compounds Compound A (iberdomide, (S)-3-[4-(4-morpholin-4-ylmethyl-benzyloxy)-1-oxo-1,3-dihydro-isoindol-2-yl]-piperidine-2,6-dione) or Compound B ((S)-4-(4-(4-(((2-(2,6-dioxopiperidin-3-yl)-1-oxoisoindolin-4-yl)oxy)methyl)benzyl)piperazin-1-yl)-3-fluorobenzonitrile), were assessed in two different BCMA-expressing target multiple myeloma cell lines RPMI-8226 or OPM-2. Anti-BCMA CAR+ T cells were generated as described in Example 1.
The anti-BCMA CAR-expressing T cells were incubated with target cells, RPMI 8226 (BCMA^med human multiple myeloma cell line) or OPM2 cells (BCMA^med human multiple myeloma cell line) target cells, at an E:T ratio of 1:1. The co-culture incubation with target cells was carried out in the presence of Compound A (0.01 nM, 0.1 nM, 1 nM, 10 nM, 100 nM, 1000 nM, or 10,000 nM) or Compound B (0.01 nM, 0.1 nM, 1 nM, 10 nM, 100 nM, 1000 nM, or 10,000 nM).
Cytokine secretion of IL-2, TNFα and IFN-gamma cytokines from cell culture supernatant of the co-cultures after 24 hours of incubation with targets cells was determined. Co-culture of anti-BCMA CAR+ T cells with Compound A enhanced the CAR T cytokine production both against RPMI-8226 target cells (FIG. 2A) and OPM2 target cells (FIG. 2B).

[2] = Example 3: day 7, Compound A 1 or 10 nM, Compound B 0.1 or 1 nM
[3] = Example 7: day 7, lenalidomide 1000 nM, Compound A 0.1, 1 or 10 nM, FIG. 8
[4] = 24 hours after first reset (day 5) or second reset (day 9), FIG. 5B

O=C1CC[C@H](N2Cc3c(OCc4ccc(CN5CCOCC5)cc4)cccc3C2=O)C(=O)N1 [Compound A, (S)-3-[4-(4-morpholin-4-ylmethyl-benzyloxy)-1-oxo-1,3-dihydro-isoindol-2-yl]-piperidine-2,6-dione]
count of anti-BCMA CAR T cells (anti-BCMA CAR T cells; [2]): increased | viability of anti-BCMA CAR T cells (anti-BCMA CAR T cells; [2]): increased | count of anti-BCMA CAR T cells (anti-BCMA CAR T cells; [3]): increased | viability of anti-BCMA CAR T cells (anti-BCMA CAR T cells; [3]): increased | long term product performance (CAR-expressing T cells; higher concentrations): detrimental | long-term proliferative potential of CAR-expressing T cells (CAR-expressing T cells; prolonged treatment, 10 or 100 nM): increase long-term proliferative potential | anti-BCMA CAR cell counts (number of population doublings) ([1]; 10 nM, E:T 1:2, five rounds over 19 days, two donors, FIG. 5A): enhanced | IL-2 production [1, 4]: increased | TNF-alpha production [1, 4]: increased | direct anti-proliferative effects on lymphoma cells (lymphoma cells): potent direct anti-proliferative effects | CAR T cytokine production (IL-2, TNFα, IFN-gamma in supernatant) (OPM2 target cells): enhanced
